According to patent publication US10681909B2, “Herbicidal triazoles” (FMC Corporation, priority 2014, dated 2020):

Key:
blackgrass = experiment: Test C preemergence; format: in vivo, Alopecurus myosuroides; settings: for Plant response rating (scale of 0 to 100 where 0 is no effect and 100 is complete control): Blackgrass, preemergence; for Blackgrass plant response rating (0 to 100): Preemergence, visual rating after 13 to 15 d
In short: (§1)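 Pre: seeded into loam/sand, sprayed same time. Post: plants in peat moss–vermiculite mix with starter nutrients and dolomitic limestone, treated at 1- to 4-leaf stage (2 to 18 cm). Formulation: non-phytotoxic solvent blend plus surfactant.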

pigweed [1] = experiment: Test D postemergence; format: in vivo, Amaranthus retroflexus; settings: scale 0 to 100
In short: (§2)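 Both application timings used one formulation, a non-phytotoxic solvent mixture with surfactant. Preemergence pots held silt loam, and postemergence plants grew in peat moss/vermiculite medium to the 1- to 4-leaf stage. All plants were held under controlled conditions for 14 to 21 d before visual scoring relative to controls.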

ragweed = experiment: Test A postemergence; format: in vivo, Ambrosia elatior; settings: 0 to 100 scale (0 no effect, 100 complete control), approx. 10 d
In short: (§3)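 Seeds sown in loam soil–sand blend received a directed preemergence soil spray of test chemical in non-phytotoxic solvent with surfactant; postemergence plants, 2 to 10 cm at one- to two-leaf stage, were sprayed with the same formulation. Injury visually rated versus untreated controls after ~10 d in greenhouse, 0–100 scale.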

radish, wild = experiment: Test D preemergence; format: in vivo, Raphanus raphanistrum; settings: for Plant response rating: Radish, Wild: scale 0 to 100
In short: as §2

windgrass [2] = experiment: Test D preemergence; format: in vivo, Apera spica-venti; settings: for Plant response rating (0 to 100), Windgrass: 16 g ai/ha, 0 is no effect, 100 is complete control; for Plant response rating: Windgrass: scale 0 to 100
In short: as §2

kochia = experiment: Test A preemergence; format: in vivo, Kochia scoparia; settings: 0 to 100 scale (0 no effect, 100 complete control)
In short: as §3

windgrass [3] = experiment: Test D postemergence; format: in vivo, Apera spica-venti; settings: scale 0 to 100
In short: as §2

canarygrass [4] = experiment: Test D preemergence; format: in vivo, Phalaris minor; settings: for Plant response rating (0 to 100), Canarygrass: 16 g ai/ha, 0 is no effect, 100 is complete control; for Plant response rating: Canarygrass: scale 0 to 100
In short: as §2

crabgrass, large = experiment: Test C preemergence; format: in vivo, Digitaria sanguinalis; settings: for Plant response rating (scale of 0 to 100 where 0 is no effect and 100 is complete control): Crabgrass, Large, preemergence; for Crabgrass, Large plant response rating (0 to 100): Preemergence, visual rating after 13 to 15 d
In short: as §1

pigweed [5] = experiment: Test C preemergence; format: in vivo, Amaranthus retroflexus; settings: for Plant response rating (scale of 0 to 100 where 0 is no effect and 100 is complete control): Pigweed, preemergence; for Pigweed plant response rating (0 to 100): Preemergence, visual rating after 13 to 15 d
In short: as §1

lambsquarters = experiment: Test C preemergence; format: in vivo, Chenopodium album; settings: for Plant response rating (scale of 0 to 100 where 0 is no effect and 100 is complete control): Lambsquarters, preemergence; for Lambsquarters plant response rating (0 to 100): Preemergence, visual rating after 13 to 15 d
In short: as §1

corn = experiment: Test C preemergence; format: in vivo, Zea mays; settings: for Plant response rating (scale of 0 to 100 where 0 is no effect and 100 is complete control): Corn, preemergence; for Corn plant response rating (0 to 100): Preemergence, visual rating after 13 to 15 d
In short: as §1

canarygrass [6] = experiment: Test D postemergence; format: in vivo, Phalaris minor; settings: scale 0 to 100
In short: as §2

Question: What does the source list for Fc1ccc(-c2nc(OCC(F)(F)F)n(Cc3ccnc(C(F)(F)F)c3)n2)cc1 [Compound 30]?
Answer: Plant response rating (scale of 0 to 100 where 0 is no effect and 100 is complete control) (blackgrass; 125 g ai/ha): 90; Plant response rating (scale of 0 to 100 where 0 is no effect and 100 is complete control) (blackgrass; 250 g ai/ha): 90; Blackgrass plant response rating (0 to 100) (blackgrass; 31 g ai/ha): 60; Blackgrass plant response rating (0 to 100) (blackgrass; 62 g ai/ha): 80; Plant response rating: Pigweed (pigweed [1]; 16 g ai/ha): 100; Plant response rating: Pigweed (pigweed [1]; 31 g ai/ha): 100; Plant response rating: Pigweed (pigweed [1]; 62 g ai/ha): 100; Plant response rating: Pigweed (pigweed [1]; 125 g ai/ha): 100; Plant response rating, Ragweed (ragweed; 125 g ai/ha): 40; Plant response rating, Ragweed (ragweed; 500 g ai/ha): 70; Plant response rating (0 to 100), Radish, Wild (radish, wild; 16 g ai/ha, 0 is no effect, 100 is complete control): 65; Plant response rating: Radish, Wild (radish, wild; 62 g ai/ha): 95; Plant response rating: Radish, Wild (radish, wild; 125 g ai/ha): 100; Plant response rating (0 to 100), Windgrass (windgrass [2]): 25; Plant response rating: Windgrass (windgrass [2]; 62 g ai/ha): 100; Plant response rating: Windgrass (windgrass [2]; 125 g ai/ha): 100; Plant response rating, Kochia (kochia; 125 g ai/ha): 100; Plant response rating, Kochia (kochia; 500 g ai/ha, approx. 10 d): 100; Plant response rating: Windgrass (windgrass [3]; 16 g ai/ha): 45; Plant response rating: Windgrass (windgrass [3]; 31 g ai/ha): 65; Plant response rating: Windgrass (windgrass [3]; 62 g ai/ha): 75; Plant response rating: Windgrass (windgrass [3]; 125 g ai/ha): 85; Plant response rating (0 to 100), Canarygrass (canarygrass [4]): 50; Plant response rating: Canarygrass (canarygrass [4]; 31 g ai/ha): 70; Plant response rating: Canarygrass (canarygrass [4]; 62 g ai/ha): 100; Plant response rating: Canarygrass (canarygrass [4]; 125 g ai/ha): 100; Plant response rating (scale of 0 to 100 where 0 is no effect and 100 is complete control) (crabgrass, large; 125 g ai/ha): 100; Plant response rating (scale of 0 to 100 where 0 is no effect and 100 is complete control) (crabgrass, large; 250 g ai/ha): 100; Crabgrass, Large plant response rating (0 to 100) (crabgrass, large; 31 g ai/ha): 98; Crabgrass, Large plant response rating (0 to 100) (crabgrass, large; 62 g ai/ha): 100; Plant response rating (scale of 0 to 100 where 0 is no effect and 100 is complete control) (pigweed [5]; 125 g ai/ha): 100; Plant response rating (scale of 0 to 100 where 0 is no effect and 100 is complete control) (pigweed [5]; 250 g ai/ha): 100; Pigweed plant response rating (0 to 100) (pigweed [5]; 31 g ai/ha): 100; Pigweed plant response rating (0 to 100) (pigweed [5]; 62 g ai/ha): 100; Plant response rating (scale of 0 to 100 where 0 is no effect and 100 is complete control) (lambsquarters; 125 g ai/ha): 95; Plant response rating (scale of 0 to 100 where 0 is no effect and 100 is complete control) (lambsquarters; 250 g ai/ha): 98; Lambsquarters plant response rating (0 to 100) (lambsquarters; 31 g ai/ha): 98; Lambsquarters plant response rating (0 to 100) (lambsquarters; 62 g ai/ha): 98; Plant response rating (scale of 0 to 100 where 0 is no effect and 100 is complete control) (corn; 125 g ai/ha): 30; Plant response rating (scale of 0 to 100 where 0 is no effect and 100 is complete control) (corn; 250 g ai/ha): 35; Corn plant response rating (0 to 100) (corn; 31 g ai/ha): 5; Corn plant response rating (0 to 100) (corn; 62 g ai/ha): 15; Plant response rating: Canarygrass (canarygrass [6]; 16 g ai/ha): 55; Plant response rating: Canarygrass (canarygrass [6]; 31 g ai/ha): 65; Plant response rating: Canarygrass (canarygrass [6]; 62 g ai/ha): 75; Plant response rating: Canarygrass (canarygrass [6]; 125 g ai/ha): 80

Question: How did the “Plant response rating (scale of 0 to 100 where 0 is no effect and 100 is complete control)” value (blackgrass; 125 g ai/ha) turn out when FC(F)(F)COc1nc(-c2ccc(Cl)cc2)nn1Cc1ccnc(C(F)(F)F)c1 [Compound 31] was run?
Answer: 90

Question: And the “Plant response rating (scale of 0 to 100 where 0 is no effect and 100 is complete control)” value (blackgrass; 250 g ai/ha)?
Answer: 95

Question: What about the “Blackgrass plant response rating (0 to 100)” value (blackgrass; 31 g ai/ha) of the same compound?
Answer: 80

Question: What about the “Blackgrass plant response rating (0 to 100)” value (blackgrass; 62 g ai/ha) of the same compound?
Answer: 70

Question: And the “Plant response rating: Pigweed” value (pigweed [1]; 16 g ai/ha)?
Answer: 100

Question: What about the “Plant response rating: Pigweed” value (pigweed [1]; 31 g ai/ha) of the same compound?
Answer: 100

Question: What about the “Plant response rating: Pigweed” value (pigweed [1]; 62 g ai/ha) of the same compound?
Answer: 100

Question: And the “Plant response rating: Pigweed” value (pigweed [1]; 125 g ai/ha)?
Answer: 100

Question: And the “Plant response rating, Ragweed” value (ragweed; 125 g ai/ha)?
Answer: 70

Question: And the “Plant response rating, Ragweed” value (ragweed; 500 g ai/ha)?
Answer: 80

Question: And the “Plant response rating: Radish, Wild” value (radish, wild; 62 g ai/ha)?
Answer: 100

Question: And the “Plant response rating: Radish, Wild” value (radish, wild; 125 g ai/ha)?
Answer: 100

Question: What about the “Plant response rating (0 to 100), Windgrass” value (windgrass [2]) of the same compound?
Answer: 60

Question: And the “Plant response rating: Windgrass” value (windgrass [2]; 62 g ai/ha)?
Answer: 100

Question: What about the “Plant response rating: Windgrass” value (windgrass [2]; 125 g ai/ha) of the same compound?
Answer: 100

Question: What about the “Plant response rating, Kochia” value (kochia; 125 g ai/ha) of the same compound?
Answer: 90

Question: What about the “Plant response rating, Kochia” value (kochia; 500 g ai/ha, approx. 10 d) of the same compound?
Answer: 90

Question: And the “Plant response rating: Windgrass” value (windgrass [3]; 16 g ai/ha)?
Answer: 60

Question: What about the “Plant response rating: Windgrass” value (windgrass [3]; 31 g ai/ha) of the same compound?
Answer: 70

Question: And the “Plant response rating: Windgrass” value (windgrass [3]; 62 g ai/ha)?
Answer: 75

Question: What about the “Plant response rating: Windgrass” value (windgrass [3]; 125 g ai/ha) of the same compound?
Answer: 80

Question: What about the “Plant response rating (0 to 100), Canarygrass” value (canarygrass [4]) of the same compound?
Answer: 50

Question: What about the “Plant response rating: Canarygrass” value (canarygrass [4]; 31 g ai/ha) of the same compound?
Answer: 85

Question: What about the “Plant response rating: Canarygrass” value (canarygrass [4]; 62 g ai/ha) of the same compound?
Answer: 90

Question: And the “Plant response rating: Canarygrass” value (canarygrass [4]; 125 g ai/ha)?
Answer: 100

Question: And the “Plant response rating (scale of 0 to 100 where 0 is no effect and 100 is complete control)” value (crabgrass, large; 125 g ai/ha)?
Answer: 100

Question: What about the “Plant response rating (scale of 0 to 100 where 0 is no effect and 100 is complete control)” value (crabgrass, large; 250 g ai/ha) of the same compound?
Answer: 100

Question: And the “Crabgrass, Large plant response rating (0 to 100)” value (crabgrass, large; 31 g ai/ha)?
Answer: 98

Question: And the “Crabgrass, Large plant response rating (0 to 100)” value (crabgrass, large; 62 g ai/ha)?
Answer: 98

Question: And the “Plant response rating (scale of 0 to 100 where 0 is no effect and 100 is complete control)” value (pigweed [5]; 125 g ai/ha)?
Answer: 100

Question: And the “Plant response rating (scale of 0 to 100 where 0 is no effect and 100 is complete control)” value (pigweed [5]; 250 g ai/ha)?
Answer: 100

Question: What about the “Pigweed plant response rating (0 to 100)” value (pigweed [5]; 31 g ai/ha) of the same compound?
Answer: 98

Question: What about the “Pigweed plant response rating (0 to 100)” value (pigweed [5]; 62 g ai/ha) of the same compound?
Answer: 100

Question: What about the “Plant response rating (scale of 0 to 100 where 0 is no effect and 100 is complete control)” value (lambsquarters; 125 g ai/ha) of the same compound?
Answer: 100

Question: What about the “Plant response rating (scale of 0 to 100 where 0 is no effect and 100 is complete control)” value (lambsquarters; 250 g ai/ha) of the same compound?
Answer: 98

Question: And the “Lambsquarters plant response rating (0 to 100)” value (lambsquarters; 31 g ai/ha)?
Answer: 90

Question: What about the “Lambsquarters plant response rating (0 to 100)” value (lambsquarters; 62 g ai/ha) of the same compound?
Answer: 100

Question: And the “Plant response rating (scale of 0 to 100 where 0 is no effect and 100 is complete control)” value (corn; 125 g ai/ha)?
Answer: 20

Question: And the “Plant response rating (scale of 0 to 100 where 0 is no effect and 100 is complete control)” value (corn; 250 g ai/ha)?
Answer: 25

Question: What about the “Corn plant response rating (0 to 100)” value (corn; 31 g ai/ha) of the same compound?
Answer: 0

Question: And the “Corn plant response rating (0 to 100)” value (corn; 62 g ai/ha)?
Answer: 0

Question: And the “Plant response rating: Canarygrass” value (canarygrass [6]; 16 g ai/ha)?
Answer: 65

Question: What about the “Plant response rating: Canarygrass” value (canarygrass [6]; 31 g ai/ha) of the same compound?
Answer: 75

Question: And the “Plant response rating: Canarygrass” value (canarygrass [6]; 62 g ai/ha)?
Answer: 80

Question: And the “Plant response rating: Canarygrass” value (canarygrass [6]; 125 g ai/ha)?
Answer: 80
